Reference: patent US8022225B2, “Triazole derivative” (Taisho Pharmaceutical Co., Ltd, priority 2004, dated 2011)

Legend:
[1] = target: T1, human Edg-1(S1P1) (Homo sapiens, UniProt P21453); assay: Cell system binding test: inhibition of [3H]-S1P binding to Edg-1(S1P1) gene transferred HEK-293 cells; settings: 10 μM compound, [3H]-S1P 10 nM, read-out: Cell system binding test % inhibition (10 μM)
T1 construct: expressed in transfected cells; host or cells: HEK-293

[2] = target: T1, human Edg-1(S1P1); assay: Membrane system binding test: inhibition of [33P]-S1P binding to the membrane fraction of Edg-1(S1P1) gene transferred HEK-293 cells; settings: 10 μM compound; [33P]-S1P 0.1 nM; membrane fraction of Edg-1(S1P1) gene transferred HEK-293 cells; read-out: Membrane system binding test % inhibition (10 μM)
Method in brief: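 Compound tested at 10^−5 M final (0.1% DMSO) for blocking 0.1 nM [^33P]-S1P binding to S1P1-expressing HEK-293 membranes, 30 °C, 1 h. Radioactivity retained on filters was counted, and percent inhibition derived relative to vehicle binding, correcting for the background of non-transfected HEK-293 membranes.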

T1 sequence (P21453 whole entry): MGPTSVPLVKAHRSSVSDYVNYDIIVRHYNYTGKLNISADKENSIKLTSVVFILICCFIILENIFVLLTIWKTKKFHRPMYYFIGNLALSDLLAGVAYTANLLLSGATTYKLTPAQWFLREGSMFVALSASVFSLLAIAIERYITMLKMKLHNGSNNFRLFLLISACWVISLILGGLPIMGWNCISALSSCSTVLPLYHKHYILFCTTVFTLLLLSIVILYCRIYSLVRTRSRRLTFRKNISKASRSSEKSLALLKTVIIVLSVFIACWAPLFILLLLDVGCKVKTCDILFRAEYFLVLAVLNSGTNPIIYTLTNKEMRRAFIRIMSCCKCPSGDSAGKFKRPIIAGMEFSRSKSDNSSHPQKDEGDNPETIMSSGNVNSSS

Row | inhibition at 10 µM [1] [%] | inhibition at 10 µM [2] [%] | melting point [°C] | Structure (SMILES)
1 | 69 | 52.4 | 161.5 to 162 | C=CCSc1nnc(C(CCC)NS(=O)(=O)c2ccc(Cl)cc2)n1C (stereo not drawn) [Compound 125, N-{1-[(5-allylthio)-4-methyl-4H-1,2,4-triazol-3-yl]butyl}-4-chlorobenzenesulfonamide]
2 | 89.2 | 97.7 | 150.5 to 151.5 | CCCOc1nnc([C@@H](C)NS(=O)(=O)c2ccc(Cl)cc2)n1CC [Compound 183, 4-Chloro-N-[(1R)-1-(4-ethyl-5-propoxy-4H-1,2,4-triazol-3-yl)ethyl]benzenesulfonamide]
3 | 90.7 | 57.3 | 161 to 162 | CCn1c(OC)nnc1[C@@H](C)NS(=O)(=O)c1ccccc1 [Compound 376, [(1R)-1-(4-Ethyl-5-methoxy-4H-[1,2,4]triazol-3-yl)ethyl]benzenesulfonamide]
